Assay results from US10208019B2, “GLP-1 receptor agonists and uses thereof” (Pfizer Inc., priority 2016, dated 2019).
Like-named read-outs stand apart in the source and are kept apart here.

What was measured:
human GLP-1R [1] = target: human GLP-1R (Homo sapiens (Human), UniProt P43220, L260F); experiment: CHO GLP-1R Clone C6—Assay 2: HTRF cAMP cell-based functional agonist assay (low GLP-1R density); conditions: for EC50: CHO GLP-1R Clone C6, cAMP HTRF, geometric mean; for Emax: read-out: Assay 2 Emax (%)
human GLP-1R [2] = target: human GLP-1R (Homo sapiens, UniProt P43220, G168S); experiment: CHO GLP-1R Clone H6—Assay 1: HTRF cAMP cell-based functional agonist assay (high GLP-1R density); conditions: for EC50: CHO GLP-1R Clone H6, cAMP HTRF, geometric mean; for Emax: read-out: Assay 1 Emax (%), CHO GLP-1R Clone H6
[3] = CHO GLP-1R Clone C6, relative to saturating concentration of full agonist GLP-1 (1 μM), arithmetic mean
[4] = relative to saturating concentration of full agonist GLP-1 (1 μM), arithmetic mean

Sequence of human GLP-1R (Homo sapiens (Human), UniProt P43220, L260F) (P43220 24-463 L260F): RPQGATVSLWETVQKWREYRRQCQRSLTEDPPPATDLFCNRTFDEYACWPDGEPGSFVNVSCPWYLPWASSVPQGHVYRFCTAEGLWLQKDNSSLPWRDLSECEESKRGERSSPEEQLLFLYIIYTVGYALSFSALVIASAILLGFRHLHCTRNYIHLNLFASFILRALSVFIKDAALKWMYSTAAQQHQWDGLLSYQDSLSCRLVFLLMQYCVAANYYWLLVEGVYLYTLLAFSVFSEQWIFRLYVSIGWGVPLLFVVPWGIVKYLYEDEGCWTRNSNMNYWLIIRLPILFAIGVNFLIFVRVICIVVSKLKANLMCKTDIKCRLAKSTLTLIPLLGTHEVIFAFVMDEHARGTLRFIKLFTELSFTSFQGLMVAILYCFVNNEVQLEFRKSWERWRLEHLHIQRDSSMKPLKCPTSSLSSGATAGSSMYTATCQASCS
Sequence of human GLP-1R (Homo sapiens, UniProt P43220, G168S) (P43220 24-463 G168S limits assumed): as the sequence (P43220 24-463 L260F) above, with G145S, F237L counted along it

SMILES	EC50 (human GLP-1R [1])	Emax (human GLP-1R [1]; [3])	EC50 (human GLP-1R [2]; read-out: Assay 1 EC50)	Emax (human GLP-1R [2]; [4])	Assay 2 Emax (%) (human GLP-1R [1]; [3])	Assay 1 Emax (%) (human GLP-1R [2]; CHO GLP-1R Clone H6, relative to saturating concentration of full agonist GLP-1 (1 μM), arithmetic mean)	EC50 (human GLP-1R [2]; Assay 1 EC50 (nM))
C[C@H]1CN(c2ccc(F)c(OCc3ccc(F)cc3F)n2)CCN1Cc1nc2ccc(C(=O)O)cc2n1C[C@H]1CCO1 [Example 10A-57]	160 nM	71%	9.4 nM	69%	–	–	–
O=C(O)c1ccc2nc(CN3CCC(c4cccc(OCc5ccc(Cl)cc5F)n4)CC3)n(Cc3cocn3)c2c1 [Example 10A-41, 2-[(4-{6-[(4-chloro-2-fluorobenzyl)oxy]pyridin-2-yl}piperidin-1-yl)methyl]-1-(1,3-oxazol-4-ylmethyl)-1H-benzimidazole-6-carboxylic acid]	140 nM	82%	12 nM	75%	–	–	–
N#Cc1ccc(COc2cccc(C3CCN(Cc4nc5ccc(C(=O)O)nc5n4C[C@@H]4CCO4)CC3)n2)c(F)c1 [Example 6A-01, 2-[(4-{6-[(4-cyano-2-fluorobenzyl)oxy]pyridin-2-yl}piperidin-1-yl)methyl]-3-[(2S)-oxetan-2-ylmethyl]-3H-imidazo[4,5-b]pyridine-5-carboxylic acid]	8.8 nM	100%	0.76 nM	88%	–	–	–
C[C@H]1CN(c2cccc(OCc3ccc(C#N)cc3F)n2)CCN1Cc1nc2ccc(C(=O)O)nc2n1Cc1ncco1 [Example 2A-21, 2-{[(2S)-4-{6-[(4-cyano-2-fluorobenzyl)oxy]pyridin-2-yl}-2-methylpiperazin-1-yl]methyl}-3-(1,3-oxazol-2-ylmethyl)-3H-imidazo[4,5-b]pyridine-5-carboxylic acid]	220 nM	110%	8.5 nM	88%	–	–	–
CO[C@@H]1CCC[C@H]1n1c(CN2CCC(c3cccc(OCc4ccc(Cl)cc4F)n3)CC2)nc2ccc(C(=O)O)cc21 [Example 1A-27, 2-[(4-{6-[(4-chloro-2-fluorobenzyl)oxy]pyridin-2-yl}piperidin-1-yl)methyl]-1-[(1R,2R)-2-methoxycyclopentyl]-1H-benzimidazole-6-carboxylic acid]	1400 nM	47%	190 nM	91%	–	–	–
O=C(O)c1cc2c(cn1)nc(CN1CCC(c3cccc(OCc4ccc(Cl)cc4F)n3)CC1)n2Cc1ncco1 [Example 2A-06, 2-[(4-{6-[(4-chloro-2-fluorobenzyl)oxy]pyridin-2-yl}piperidin-1-yl)methyl]-1-(1,3-oxazol-2-ylmethyl)-1H-imidazo[4,5-c]pyridine-6-carboxylic acid]	170 nM	85%	9 nM	82%	–	–	–
CCn1cncc1Cn1c(CN2CCC(c3cccc(OCc4ccc(C#N)cc4F)n3)CC2)nc2ccc(C(=O)O)nc21 [Example 10A-75]	13 nM	91%	0.95 nM	95%	–	–	–
COCCn1c(CN2CC[C@@H](c3cccc(OCc4ccc(Cl)cc4F)n3)[C@H](F)C2)nc2ccc(C(=O)O)cc21 (racemic) [Example 1A-22, rac 2-{[(3S,4S)-4-{6-[(4-chloro-2-fluorobenzyl)oxy]pyridin-2-yl}-3-fluoropiperidin-1-yl]methyl}-1-(2-methoxyethyl)-1H-benzimidazole-6-carboxylic acid]	400 nM	–	36 nM	–	86%	78%	–
CCn1cncc1Cn1c(CN2CCC(c3cccc(OCc4ccc(C#N)cc4F)n3)CC2)nc2ccc(C(=O)O)cc21 [Example 10A-66, 2-[(4-{6-[(4-cyano-2-fluorobenzyl)oxy]pyridin-2-yl}piperidin-1-yl)methyl]-1-[(1-ethyl-1H-imidazol-5-yl)methyl]-1H-benzimidazole-6-carboxylic acid]	3.4 nM	100%	0.39 nM	84%	–	–	–
COCCn1c(CN2CCC(c3cccc(OCc4ccc(Cl)cc4F)n3)CC2)nc2ccc(C(=O)O)c(F)c21 [Example 2A-08, 2-[(4-{6-[(4-chloro-2-fluorobenzyl)oxy]pyridin-2-yl}piperidin-1-yl)methyl]-7-fluoro-1-(2-methoxyethyl)-1H-benzimidazole-6-carboxylic acid]	94 nM	76%	5.8 nM	72%	–	–	–
O=C(O)c1ccc2nc(CN3CCC(c4cccc(OCc5ccc(Cl)cc5F)n4)CC3)n(C3CCOC3)c2c1 (stereo not drawn) [Example 11A-26, 2-[(4-{6-[(4-chloro-2-fluorobenzyl)oxy]pyridin-2-yl}piperidin-1-yl)methyl]-1-(tetrahydrofuran-3-yl)-1H-benzimidazole-6-carboxylic acid]	1100 nM	79%	36 nM	73%	–	–	–
N#Cc1ccc(COc2cccc(C3CCN(Cc4nc5ccc(C(=O)O)nc5n4Cc4cnco4)CC3)n2)c(F)c1 [Example 10A-24]	130 nM	94%	5.7 nM	78%	–	–	–
Cn1c(CN2CCC(c3cccc(OCc4ccc(Cl)cc4F)n3)CC2)nc2cc(F)c(C(=O)O)cc21 [Example 2A-09, 2-[(4-{6-[(4-chloro-2-fluorobenzyl)oxy]pyridin-2-yl}piperidin-1-yl)methyl]-5-fluoro-1-methyl-1H-benzimidazole-6-carboxylic acid]	2200 nM	83%	120 nM	76%	–	–	–
Cn1cnnc1Cn1c(CN2CCC(c3cccc(OCc4ccc(C#N)cc4F)n3)CC2)nc2ccc(C(=O)O)cc21 [Example 1A-20, 2-[(4-{6-[(4-cyano-2-fluorobenzyl)oxy]pyridin-2-yl}piperidin-1-yl)methyl]-1-[(4-methyl-4H-1,2,4-triazol-3-yl)methyl]-1H-benzimidazole-6-carboxylic acid]	880 nM	90%	44 nM	81%	–	–	–
N#Cc1ccc(COc2cccc(C3CCN(Cc4nc5ccc(C(=O)O)cc5n4Cc4ncco4)CC3)n2)c(F)c1 [Example 7A-01, 2-[(4-{6-[(4-cyano-2-fluorobenzyl)oxy]pyridin-2-yl}piperidin-1-yl)methyl]-1-(1,3-oxazol-2-ylmethyl)-1H-benzimidazole-6-carboxylic acid]	–	86%	–	84%	–	–	–
O=C(O)c1ccc2nc(CN3CCC(c4cccc(OCc5ccc(Cl)cc5F)n4)CC3)n(C[C@@H]3CCO3)c2c1 [Example 3A-01, 2-[(4-{6-[(4-chloro-2-fluorobenzyl)oxy]pyridin-2-yl}piperidin-1-yl)methyl]-1-[(2S)-oxetan-2-ylmethyl]-1H-benzimidazole-6-carboxylic acid]	12 nM	98%	0.94 nM	83%	–	–	–
CO[C@H]1CCC[C@H]1Cn1c(CN2CCC(c3cccc(OCc4ccc(Cl)cc4F)n3)CC2)nc2ccc(C(=O)O)cc21 (racemic) [Example 1A-29, rac-2-[(4-{6-[(4-chloro-2-fluorobenzyl)oxy]pyridin-2-yl}piperidin-1-yl)methyl]-1-{[(1S,2S)-2-methoxycyclopentyl]methyl}-1H-benzimidazole-6-carboxylic acid]	5600 nM	86%	–	88%	–	–	260 nM
